Assay results reported in ChEMBL document CHEMBL4177715, “Synthesis of radioiodinated probes targeted toward matrix metalloproteinase-12” (Bioorg Med Chem Lett, 2018).

Experiments:
Collagenase 3 = Collagenase 3 (Homo sapiens, UniProt P45452); assay: Inhibition of recombinant human MMP13 using Mca-Pro-Leu-Gly-Leu-Dpa(Dnp)-Ala-Arg-NH2 as substrate after 30 mins by fluorescence spectrometry
[1] = biological target: Macrophage metalloelastase (Homo sapiens, UniProt P39900); assay: Inhibition of recombinant human MMP12 using Mca-Pro-Leu-Gly-Leu-Dpa(Dnp)-Ala-Arg-NH2 as substrate after 30 mins by fluorescence spectrometry
Chain of Macrophage metalloelastase (P39900 whole entry): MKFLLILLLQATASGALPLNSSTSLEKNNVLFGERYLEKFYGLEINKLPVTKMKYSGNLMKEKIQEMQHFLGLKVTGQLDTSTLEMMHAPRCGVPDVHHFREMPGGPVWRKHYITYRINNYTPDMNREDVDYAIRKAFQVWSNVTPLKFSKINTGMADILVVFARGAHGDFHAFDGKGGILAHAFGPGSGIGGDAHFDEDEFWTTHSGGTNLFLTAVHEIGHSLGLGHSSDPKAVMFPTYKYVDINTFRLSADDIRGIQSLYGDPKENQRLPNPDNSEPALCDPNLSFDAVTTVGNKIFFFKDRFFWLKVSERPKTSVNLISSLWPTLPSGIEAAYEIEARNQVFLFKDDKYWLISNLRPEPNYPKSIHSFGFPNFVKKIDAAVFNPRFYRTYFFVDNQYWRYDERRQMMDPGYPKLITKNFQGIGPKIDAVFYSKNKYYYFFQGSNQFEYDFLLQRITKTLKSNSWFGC

Compound	IC50 (Collagenase 3)	IC50 [1]
CC(C)[C@H](NS(=O)(=O)c1ccc2c(c1)oc1ccc(NC(=O)Oc3ccc(Br)cc3)cc12)C(=O)O	0.051 µM	0.011 µM
CC(C)[C@H](NS(=O)(=O)c1ccc2c(c1)oc1ccc(NC(=O)c3ccc(I)cc3)cc12)C(=O)O	> 2 µM	0.502 µM
CC(C)[C@H](NS(=O)(=O)c1ccc2c(c1)oc1ccc(NC(=O)Oc3ccc(I)cc3)cc12)C(=O)O	0.069 µM	0.0085 µM
CC(C)[C@H](NS(=O)(=O)c1ccc2c(c1)oc1ccc(NS(=O)(=O)c3ccc(I)cc3)cc12)C(=O)O	0.403 µM	0.297 µM
CC(C)[C@H](NS(=O)(=O)c1ccc2c(c1)oc1ccc(NC(=O)Oc3ccc(F)cc3)cc12)C(=O)O	0.065 µM	
